Source: patent US8959984B2, “Proteome-wide quantification of small molecule binding to cellular target proteins” (priority 2007, dated 2015)

Columns and labels:
Assay in all cases: binding to VI16742 beads (HeLa lysate, SILAC MS)
[1] = molecular target: T1, AGL (IPI00328318) (Homo sapiens, UniProt P35573)
T1 construct: endogenous in cells; host or cells: HeLa S3
From the text: (§1) In an alternative implementation of the chemical proteomic approach according to the invention, the broadly-selective pyrido[2,3-d]pyrimidine-based kinase inhibitor VI16742 has been used for affinity capture (FIG. 10a). […] As shown by gene ontology analysis, the corresponding molecular functions were highly over-represented in proteins specifically retained by the inhibitor resin (FIG. 10b).

[2] = molecular target: T2, APRT (IPI00218693) (Homo sapiens, UniProt P07741)
T2 construct: endogenous in cells; host or cells: HeLa S3
T2 sequence (P07741 1-180): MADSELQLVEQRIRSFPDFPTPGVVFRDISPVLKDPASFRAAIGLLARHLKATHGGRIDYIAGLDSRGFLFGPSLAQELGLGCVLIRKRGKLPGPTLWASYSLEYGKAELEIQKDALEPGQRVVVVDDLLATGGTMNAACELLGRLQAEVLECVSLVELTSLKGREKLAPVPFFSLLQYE
From the text: as §1

[3] = molecular target: T3, CDK4 (IPI00007811) (Homo sapiens, UniProt P11802)
T3 construct: endogenous in cells; host or cells: HeLa S3
T3 sequence (P11802 whole entry): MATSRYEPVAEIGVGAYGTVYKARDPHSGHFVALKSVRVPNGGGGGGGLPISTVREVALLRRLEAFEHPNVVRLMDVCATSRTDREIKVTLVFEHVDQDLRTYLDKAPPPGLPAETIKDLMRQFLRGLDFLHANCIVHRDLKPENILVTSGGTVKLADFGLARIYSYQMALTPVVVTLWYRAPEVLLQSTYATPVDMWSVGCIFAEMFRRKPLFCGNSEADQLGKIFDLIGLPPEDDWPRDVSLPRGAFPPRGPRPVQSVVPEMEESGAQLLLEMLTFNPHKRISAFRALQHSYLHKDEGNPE
From the text: as §1

[4] = molecular target: T4, DCI (IPI00300567) (Homo sapiens, UniProt P42126)
T4 construct: endogenous in cells; host or cells: HeLa S3
T4 sequence (P42126 42-302): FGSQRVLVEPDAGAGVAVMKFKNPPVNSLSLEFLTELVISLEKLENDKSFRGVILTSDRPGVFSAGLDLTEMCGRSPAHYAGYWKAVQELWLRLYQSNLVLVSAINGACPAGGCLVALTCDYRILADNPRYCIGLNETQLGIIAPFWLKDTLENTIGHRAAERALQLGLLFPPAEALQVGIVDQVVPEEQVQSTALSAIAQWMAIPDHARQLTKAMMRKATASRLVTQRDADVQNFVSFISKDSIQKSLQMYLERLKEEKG
From the text: as §1

[5] = molecular target: T5, MASTL (IPI00074258) (Homo sapiens, UniProt Q96GX5)
T5 construct: endogenous in cells; host or cells: HeLa S3
T5 sequence (Q96GX5 1-879): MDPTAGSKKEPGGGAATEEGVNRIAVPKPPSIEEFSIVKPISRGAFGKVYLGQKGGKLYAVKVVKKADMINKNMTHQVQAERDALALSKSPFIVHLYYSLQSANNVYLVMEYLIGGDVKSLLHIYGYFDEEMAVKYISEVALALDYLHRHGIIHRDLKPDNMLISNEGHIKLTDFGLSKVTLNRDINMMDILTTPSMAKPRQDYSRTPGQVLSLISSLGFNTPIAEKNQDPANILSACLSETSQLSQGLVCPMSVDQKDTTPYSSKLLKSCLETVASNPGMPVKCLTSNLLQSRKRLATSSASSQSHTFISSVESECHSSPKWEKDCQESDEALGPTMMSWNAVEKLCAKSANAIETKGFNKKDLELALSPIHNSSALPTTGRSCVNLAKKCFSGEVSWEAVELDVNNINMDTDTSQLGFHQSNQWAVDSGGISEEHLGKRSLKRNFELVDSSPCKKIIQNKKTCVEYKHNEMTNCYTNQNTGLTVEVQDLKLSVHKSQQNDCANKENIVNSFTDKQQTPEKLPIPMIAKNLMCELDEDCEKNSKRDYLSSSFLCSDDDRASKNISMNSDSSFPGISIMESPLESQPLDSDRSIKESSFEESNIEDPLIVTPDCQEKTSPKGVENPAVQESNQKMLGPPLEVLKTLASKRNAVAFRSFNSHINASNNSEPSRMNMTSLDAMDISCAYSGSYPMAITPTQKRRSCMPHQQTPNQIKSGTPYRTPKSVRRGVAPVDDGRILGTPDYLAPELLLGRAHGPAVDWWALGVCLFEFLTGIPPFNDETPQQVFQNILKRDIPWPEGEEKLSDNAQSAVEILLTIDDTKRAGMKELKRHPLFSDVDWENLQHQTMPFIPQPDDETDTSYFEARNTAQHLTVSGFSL
From the text: as §1

[6] = control beads vs first incubation

T1 sequence (P35573 whole entry): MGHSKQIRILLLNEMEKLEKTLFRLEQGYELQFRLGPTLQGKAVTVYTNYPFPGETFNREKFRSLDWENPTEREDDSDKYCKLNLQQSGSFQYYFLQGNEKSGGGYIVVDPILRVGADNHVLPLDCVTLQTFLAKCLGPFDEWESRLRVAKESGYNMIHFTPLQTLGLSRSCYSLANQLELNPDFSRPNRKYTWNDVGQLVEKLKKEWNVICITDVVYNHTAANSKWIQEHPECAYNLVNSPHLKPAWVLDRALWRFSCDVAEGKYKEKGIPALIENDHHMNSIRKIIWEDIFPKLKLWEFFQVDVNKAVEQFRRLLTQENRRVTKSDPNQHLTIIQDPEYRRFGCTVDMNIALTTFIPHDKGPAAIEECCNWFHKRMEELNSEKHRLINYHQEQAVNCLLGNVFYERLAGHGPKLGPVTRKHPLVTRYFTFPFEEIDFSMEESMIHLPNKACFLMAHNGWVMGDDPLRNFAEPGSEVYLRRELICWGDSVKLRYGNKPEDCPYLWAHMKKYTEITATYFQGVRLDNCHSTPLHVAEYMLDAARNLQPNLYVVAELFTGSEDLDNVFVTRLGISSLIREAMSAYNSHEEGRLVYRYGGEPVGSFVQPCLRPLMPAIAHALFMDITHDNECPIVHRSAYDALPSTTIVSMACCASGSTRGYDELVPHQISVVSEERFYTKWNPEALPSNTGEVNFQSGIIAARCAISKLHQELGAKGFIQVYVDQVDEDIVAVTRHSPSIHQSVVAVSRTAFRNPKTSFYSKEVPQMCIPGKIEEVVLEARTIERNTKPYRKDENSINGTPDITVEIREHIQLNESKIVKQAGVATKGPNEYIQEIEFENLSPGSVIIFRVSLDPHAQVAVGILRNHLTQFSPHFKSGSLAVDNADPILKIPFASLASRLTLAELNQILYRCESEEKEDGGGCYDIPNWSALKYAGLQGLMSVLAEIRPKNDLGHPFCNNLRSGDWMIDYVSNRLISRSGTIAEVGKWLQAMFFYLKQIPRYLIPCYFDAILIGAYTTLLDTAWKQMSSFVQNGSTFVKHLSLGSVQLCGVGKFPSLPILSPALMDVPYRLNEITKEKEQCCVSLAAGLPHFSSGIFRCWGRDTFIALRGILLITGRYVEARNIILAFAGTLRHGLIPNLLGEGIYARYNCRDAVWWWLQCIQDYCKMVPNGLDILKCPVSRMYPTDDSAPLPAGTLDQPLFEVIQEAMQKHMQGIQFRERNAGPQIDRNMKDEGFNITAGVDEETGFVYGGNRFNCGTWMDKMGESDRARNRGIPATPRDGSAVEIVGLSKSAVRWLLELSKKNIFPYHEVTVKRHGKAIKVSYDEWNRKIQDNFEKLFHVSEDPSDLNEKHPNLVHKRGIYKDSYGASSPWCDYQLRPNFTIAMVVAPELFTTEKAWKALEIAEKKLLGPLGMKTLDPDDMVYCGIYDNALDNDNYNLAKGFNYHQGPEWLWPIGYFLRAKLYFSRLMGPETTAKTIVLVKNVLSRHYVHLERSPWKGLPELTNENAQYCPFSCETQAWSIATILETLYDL

CC(C)n1c(=O)ccc2cnc(Nc3ccc(OCCN)cc3)nc21 [V16742]
rAVERAGE (CTRL/1 INC) [1, 6]: 0.08
Ki ([1]; immobilized VI16742): 218 µM
rAVERAGE (2 INC/1 INC) ([1]; second vs first incubation): 0.81
r (3 MG/1 MG LYSATE) ([2]; 3 mg vs 1 mg lysate): 1.04
r (5 h/2.5 h INC. TIME) ([2]; 5 h vs 2.5 h incubation time): 1.40
rAVERAGE (CTRL/1 INC) [2, 6]: 0.05
Ki ([2]; immobilized VI16742): 223 µM
rAVERAGE (2 INC/1 INC) ([2]; second vs first incubation): 0.81
r (3 MG/1 MG LYSATE) ([3]; 3 mg vs 1 mg lysate): 1.77
r (5 h/2.5 h INC. TIME) ([3]; 5 h vs 2.5 h incubation time): 1.03
rAVERAGE (CTRL/1 INC) [3, 6]: 0.07
Ki ([3]; immobilized VI16742): 511 µM
rAVERAGE (2 INC/1 INC) ([3]; second vs first incubation): 0.91
r (3 MG/1 MG LYSATE) ([4]; 3 mg vs 1 mg lysate): 3.25
r (5 h/2.5 h INC. TIME) ([4]; 5 h vs 2.5 h incubation time): 1.68
rAVERAGE (CTRL/1 INC) [4, 6]: 0.04
Ki ([4]; immobilized VI16742): 236 µM
rAVERAGE (2 INC/1 INC) ([4]; second vs first incubation): 0.82
rAVERAGE (CTRL/1 INC) [5, 6]: 0.09
Ki ([5]; immobilized VI16742): 109 µM
rAVERAGE (2 INC/1 INC) ([5]; second vs first incubation): 0.68
